# In patent US7056948B2, “Use of odor reducing and cross-adapting agents to reduce animal waste malodors” (Monell Chemical Senses Center, priority 2000, dated 2006):
# How the values were obtained:
# [1] = Initial olfactory evaluation by judges of swine slurry treated with a single odor-reducing or cross-adapting agent; details: initial olfactory evaluations by several judges; 1-10% by weight
# Excerpt: We attempted amelioration of odor from swine slurry. Swine slurry is a highly malodorous aqueous mixture of pig feces, urine, body secretions and spent feed. Each concentration was mixed with 1 gm of untreated swine slurry. Untreated swine slurry served as a control.
# [2] = cited from earlier work
Substance,suppression of the stronger malodor notes in swine slurry [1],"reduction in malodor in patients with urinary and fecal incontinence ([2]; 100-200 mg doses, after the first week of treatment)",dosages safely used ([2]; Chernomorsky et al.),"control of malodors in colostomy patients ([2]; oral, 100-200 mg daily)","side effects in colostomy patients ([2]; oral, 100-200 mg daily)"
bismuth subgallate [BiG],appeared to suppress the stronger malodor notes,,,,
chlorophyllin copper complex [CCC],appeared to suppress the stronger malodor notes,marked reduction in malodor,up to 800 mg/day,sufficient to control malodors,without undesirable side effects
